Data on one molecule can be found in US20100138935A1, “Detection of cellular stress” (priority 2004, published 2010).

Assay [1] concerns HO-1-LacZ (HOZ) transgene. Nature of the assay: LacZ transgene expression in HO-1-LacZ (HOZ) reporter mice. Type of assay: in vivo, mouse. On the procedure: Each test compound was dissolved in the appropriate vehicle solution and administered by intraperitoneal injection (i.p.) at a dose volume of 10 ml/kg. Wherever possible, both naive (untreated) and vehicle-treated controls were used. If a test item whose toxicity in the mouse is poorly characterised was to be used, a dose-ranging experiment was conducted prior to the main experiment. The test item was administered to a single mouse which was monitored for any adverse effects 6-8 hours and 24 hours later. If the single dose ranging mouse tolerated the treatment, the remaining mice were administered the test item according to the protocol.
Two slices of tissue (˜2 mm thickness) were removed for histochemical analysis of LacZ expression according to methods described below.
Tissues were washed with PBS and prefixed in 0.2% glutaraldehyde in PBS containing 0.1M MgCl2 and 5 mM EDTA, pH 7.3, for 4 hours at 4° C. on a shaker. After fixation, the tissues were transferred to 20% Sucrose solution and dehydrated overnight at 4° C. The next day they were embedded in cryo-M-bed medium on cork discs and lowered slowly into liquid nitrogen then transferred to −80° C. until sections were required.
Cryostat sample and chamber temperatures were set to −30° C. The sample to be sectioned was placed in the cryostat one hour prior to sectioning to allow equilibration at the appropriate temperature. Frozen sections (10 μm) were cut and placed on aminopropyltriethoxysilane (APES) coated slides.
Prior to staining, sections were incubated in 0.2% glutaraldehyde (as above) for 10 minutes at room temperature then washed twice (5 min each) in PBS containing 2 mM MgCl2, 0.01% sodium deoxycholate and 0.02% % Nonidet-P40. Sections were then […] the same wash solution containing 1 mg/ml X-gal, 5 mM potassium ferrocyanide and 5 mM potassium ferricyanide overnight at 37° C. then washed twice in PBS for 5 min, allowed to air dry and mounted in aqueous mounting medium (Hydromount). Slides were evaluated and photographed. • Frozen Method 2
Tissues were excised, immediately placed into chilled 4% paraformaldehyde containing 0.1% glutaraldehyde and 2 mM MgCl2 in PBS, and fixed in the above solution for 3 hours at 2-8° C. with gentle shaking. Fixed tissues were washed at 2-8° C. for 3×5 minutes with chilled PBS containing 2 mM MgCl2 and dehydrated overnight at 2-8° C. in PBS containing 2 mM MgCl2 and 30% (w/v) sucrose overnight The next day dehydrated tissues were embedded in OCT embedding medium using an isopentane/dry ice bath. Embedded tissues were stored at −70° C. until they could be cryosectioned.
Frozen sections were washed three times for 5 minutes in PBS containing 2 mM MgCl2 at 2-8° C. then 3×30 min in detergent wash (PBS containing 2 mM MgCl2 0.01% Nonidet P40 and 0.1% Sodium Deoxycholate) at 2-8° C. They were then stained overnight in PBS containing 2 mM MgCl2, 0.02% Nonidet P40, 0.1% Sodium Deoxycholate, 5 mM Potassium ferrocyanide, 5 mM Potassium ferricyanide, and 0.1% X-gal at 37° C. The next day, the slides were washed three times for 5 minutes in PBS containing 2 mM MgCl2 followed by three times for 5 minutes in PBS at room temperature. They were equilibrated with 100% ethanol (5 min) and counterstained with Eosin for 1 min at room temperature. Following dehydration and mounting they were evaluated and photographed. • Whole Mount Method
Tissue specimens that had been prefixed in fresh 4% paraformaldehyde were stained immediately using the procedure for “Whole Mount X-Gal Histochemistry of Transgenic Animal Tissues” (see http://www.rodentia.com/wmc/docs/lacZ bible.html), summarised below) was followed, and the post-fixed tissues were transferred to 70% (v/v) ethanol.
Following fixation for one hour in 4% paraformaldehyde, tissues were rinsed three times, for thirty minutes each, with rinse buffer (100 mM sodium phosphate (pH 7.3), 2 mM MgCl2, 0.01% sodium deoxycholate, 0.02% NP-40) at room temperature. […]

In assay [2] the test system is HO-1 mRNA. Nature of the assay: RT-PCR assay of endogenous HO-1 mRNA in HOZ mouse tissue. Type of assay: in vivo. On the procedure:
Analysis of the expression of endogenous genes was carried out by RT-PCR using the ABI Prism 7000 system. For RT-PCR analysis, frozen tissue samples were homogenised using a Polytron PT-mr2100 homogeniser in 1 ml TRI reagent (Sigma). Total RNA for each sample was isolated according to the manufacturer's instructions and RNA pellets stored at −70° C. under 75% ethanol. Each of the RNA pellets was resuspended in RNAase/DNAase free dH2O and quantified using a Genequant RNA/DNA calculator (Amersham). First strand cDNA synthesis was performed for each sample using 2 μg of total RNA and the Protoscript First Strand cDNA Synthesis Kit (New England Biolabs) according to the manufacturer's protocol. Additional steps to degrade RNA following cDNA synthesis were performed. Each sample was diluted to 50 μl with RNAase/DNAase-free dH2O and stored at −20° C.
In order to measure variation in p21 or Haemoxygenase-1 (HO-1) expression it was necessary to include an internal control. Amplification of β-Actin cDNA provides a standard to control for variations on RNA content between samples. The final reactions therefore consisted of two separate reactions (target gene and β-Actin cDNA amplification) performed simultaneously in a single tube. The PCR conditions used were 10 minutes at 95° C. followed by 40 cycles of denaturing for 15 seconds at 95° C. and annealing/extending for 1 minute at 60° C. The primers and probe for the p21 and HO-1 amplification reactions were obtained from ABI (Assay-On-Demand kit). These methods have been pre-validated for the standard conditions used on the ABI Prism 7000 system.
The effects of cadmium chloride on endogenous HO-1 expression were determined by RT-PCR assay of HO-1 mRNA levels in liver and kidney tissue from HOZ mice. […] The bars show relative concentrations of HO-1 mRNA assayed by RT-PCR in brain, kidney and liver tissue of mice that had received 10 mg/kg cadmium chloride 24 hours earlier compared with mice that had received saline and untreated mice. […]

As to `[Cl][Cd][Cl]` [Cadmium Chloride, cadmium chloride], the “expression of the HOZ gene in kidney” value in assay [1] (8 mg/kg, 8 hours after dosing) is recorded as “detectable expression”. In assay [1] (HOZ mice, with or without cadmium chloride treatment), the “LacZ expression in brain” value is on record as “no evidence of LacZ expression”. Further, the “LacZ staining in liver” value in assay [1] (HOZ mouse, 10 mg/kg i.p. in saline, 24 hours after dosing) is reported as “intense blue staining”; in assay [1] (female, 4 mg/kg i.p., 8 hours), “weak LacZ staining”. Further, in assay [1] (HOZ mouse, 10 mg/kg i.p. in saline, 24 hours, versus naive and saline controls), the “LacZ staining in kidney (proximal convoluted tubules)” value is on record as “frequency of stained PCTs was much higher”. Besides, the “HOZ gene expression in liver” value in assay [1] (either sex, 8 mg/kg i.p., 24 hours) is “clearly apparent”; in assay [1] (female, 2-8 mg/kg i.p., 8 hours) it was “no consistent evidence of HOZ expression”; in assay [1] (female, lower doses (2, 4 mg/kg) i.p., 24 hours) it was “none was evident”; in assay [1] (male, 8 mg/kg i.p., 8 hours), “High levels of HOZ gene expression”; in assay [1] (male, lower doses (2, 4 mg/kg) i.p., 8 hours), “lower levels of expression”; in assay [1] (male, lower doses (2, 4 mg/kg) i.p., 24 hours), “some HOZ expression was also apparent”. Further, the “HO-1 mRNA levels in kidney and liver compared to controls” value in assay [2] (10 mg/kg, after 24 hours) was “very substantially elevated”. The “HO-1 mRNA in liver versus dose” value in assay [2] (both sexes, 0-8 mg/kg, 8 hours) is given as “clear dose-response relationship”. Besides, the “HO-1 mRNA levels in liver” value in assay [2] (highest doses, 24 hours) was “slightly elevated”.
